Reference: US10787651B2, “Bradyrhizobium monooxygenase and use thereof for preparation of chiral sulfoxide” (JIANGSU AOSAIKANG PHARMACEUTICAL CO., LTD., priority 2018, dated 2020)

Key:
purified BoTEMO enzyme = test: Specific activity and ee of purified BoTEMO enzyme against a series of thioethers; assay type: biochemical, Bradyrhizobium oligotrophicum ECU1212; conditions: pH 9.0, 25° C.
Description: To 0.5 ml of potassium phosphate buffer (100 mmol/L, pH 9.0) was added purified BoTEMO enzyme (purified BoTEMO enzyme prepared in accordance with the method of Example 5). A thioether substrate dissolved in DMSO was added so that the final concentration of the thioether was 0.2-2 mmol/L and the final concentration of DMSO was 2% (v/v), and NADPH was added to a final concentration 0.2-2 mmol/L. At 25° C., the reaction was stirred at 1000 rpm under shaking. After completion of reaction, 0.6 ml of ethyl acetate was added for extraction. The extract was dried over anhydrous sodium sulfate. The organic clear liquid was taken up, and evaporated overnight to remove the solvent. Then, the residue was dissolved with 0.5 ml of isopropanol and analyzed for measuring the ee value of product.
The particular analysis conditions of conversion rate and ee value of product are as follows:
The analysis is carried out with a high performance liquid chromatograph (HPLC) under the conditions of: a chiral OD-H column ([…], 5 μm particle size, Daicel), a mobile phase of n-hexane:isopropanol=93:7, a flow rate of 1 ml/min, and UV detection at 254 nm; or an AS-H column (250 mm×4.6 mm, 5 μm particle size, Daicel), a mobile phase of n-hexane:isopropanol=55:45, a flow rate of 0.5 mL/min, and UV detection at 254 nm.
The activity of BoTEMO for catalyzing the asymmetrical oxidation of a series of thioether substrates to produce optically active sulfoxides was further determined by the method in accordance with Example.

[1] = Activity of recombinant BoTEMO by change of absorbance at 340 nm (NADPH); assay type: biochemical
Description: The activity of BoTEMO and glucose dehydrogenase was determined by measuring the change of absorbance at 340 nm with a spectrophotometer.
(§1) The activity of BoTEMO was determined as follows. To 1 ml of the reaction system (100 mmol/L Tris-HCl buffer, pH 9.0) was added 1 mmol/L thioanisole and 0.2 mmol/L NADPH. The mixture was kept at 30° C. for 2 min, and then an appropriate amount of crude enzyme solution prepared in accordance with Example 5 was added. The mixture was rapidly mixed to uniform, and measured for the change of absorbance at 340 nm. The specific activity of the crude enzyme solution was determined as 101 mU/ml.
(§2) The enzyme activity was calculated in accordance with the equation of: Enzyme Activity (U)=EW×V×10^3/(6220×1).
(§3) In the equation, EW represents the change of absorbance at 340 nm in 1 min; V represents the volume of the reaction mixture (in ml); 6220 represents the molar extinction coefficient of NADPH (in L/(mol·cm)); and 1 represents the optical path distance (in cm). Each unit of BoTEMO is defined as the enzyme amount required to catalyze the oxidation of 1 μmol NADPH per minute under the foregoing conditions. Each unit of glucose dehydrogenase is defined as the enzyme amount required to catalyze the reduction of 1 μmol NADP^+ per minute under the foregoing conditions.

[2] = Enzyme activity of BoTEMO-M1 and BoTEMO-M2 powders (method of Example 6); assay type: biochemical; conditions: lyophilized crude enzyme powders; for enzyme activity relative to BoTEMO: times that of BoTEMO
Description: as §1, §2, §3
Recombinant transformants were prepared from the foregoing two mutant genes of BoTEMO-M1 and BoTEMO-M2 in accordance with the method of Example 4. Resting cells and lyophilized crude enzyme powders were prepared in accordance with the method of Example 5. And further, the enzyme activities of BoTEMO-M1 and BoTEMO-M2 powders were measured in accordance with the method of measuring the enzyme activity of Example 6. The enzyme activities of BoTEMO-M1 and BoTEMO-M2 are 7.6 times that of BoTEMO (BoTEMO-M1) and 1.6 times (BoTEMO-M2), respectively. The activity against the lansoprazole thioether reaches 20 U/g (BoTEMO-M1) and 4.2 U/g (BoTEMO-M2).

Molecule	Specific Activity (purified BoTEMO enzyme)	further results
CSc1ccccc1 [compound 1]	+++ (“+++”: >100 U/g)	–
COc1ccc2[nH]c(SCc3ncc(C)c(OC)c3C)nc2c1 [compound 2]	++ (“++”: 10 ~ 100 U/g)	–
COc1ccnc(CSc2nc3cc(-n4cccc4)ccc3[nH]2)c1C [compound 3]	++ (“++”: 10 ~ 100 U/g)	–
CSc1ccc(C)cc1 [compound 4]	+ (“+”: <10 U/g)	–
COc1ccc2[nH]c(SC)nc2c1 [compound 5]	+ (“+”: <10 U/g)	–
COCCCOc1ccnc(CSc2nc3ccccc3[nH]2)c1C [compound 6]	+ (“+”: <10 U/g)	–
COc1ccnc(CSc2nc3cc(OC(F)F)ccc3[nH]2)c1OC [compound 7]	+ (“+”: <10 U/g)	–
Cc1c(OCC(F)(F)F)ccnc1CSc1nc2ccccc2[nH]1 [compound 8]	+ (“+”: <10 U/g)	–
BoTEMO: Bradyrhizobium oligotrophicum ECU1212 Thioether Monooxygenase, amino acid sequence SEQ ID No. 2 (protein, Bradyrhizobium oligotrophicum ECU1212) MSTEHVDVLIVGAGLSGIAAAYHLQHKCPGKRFALLEGRGALGGTWDLFRYPGIRSDSDMYTLGYSFKPWTDPKAIADGPQILKYVQDTATENGIDRHIRFNHRVRRASWSSADARWTVEAERQTAQGTTETVSMTCGFLFMCSGYYRYEKGYLPDFKGMADFKGRIVHPQAWPADLDYAGKRVVVIGSGATAVTLVPAMAKTAAHVTMLQRSPTYVVSRPAQDALANKLREHLPAGLAYHLIRWRNVLFGMYFFQLSRRKPQRVKQLILGGVRAALGPDYDVATHFTPRYNPWDQRLCLVPDGDLFRTIREQRASVVTAGIDTFTERGLRLSDGRELEAEIVVTATGLVLQVLGGSEVVVDGRTVDFAKTLNYKGMMYSDVPNMAATLGYTNFSWTLKCDLTCEYVCRLLNYMDRHGYRQCVPHNDDTTVTPLPSLSFSSGYVQRSIADLPKQGSKRPWRLYQNYALDIVSLRFGKVDDGVMRYS	–	specific activity of the crude enzyme solution ([1]; 1 mmol/L thioanisole, 0.2 mmol/L NADPH, pH 9.0, 30° C.): 101 mU/ml; activity of lyophilized crude enzyme solution powders on thioanisole ([1]; lyophilized crude enzyme powders): 0.2 U/mg
BoTEMO-M2: BoTEMO mutant, Ser357Ile, Phe394Ala, SEQ ID No. 6 (protein, VARIANT) MSTEHVDVLIVGAGLSGIAAAYHLQHKCPGKRFALLEGRGALGGTWDLFRYPGIRSDSDMYTLGYSFKPWTDPKAIADGPQILKYVQDTATENGIDRHIRFNHRVRRASWSSADARWTVEAERQTAQGTTETVSMTCGFLFMCSGYYRYEKGYLPDFKGMADFKGRIVHPQAWPADLDYAGKRVVVIGSGATAVTLVPAMAKTAAHVTMLQRSPTYVVSRPAQDALANKLREHLPAGLAYHLIRWRNVLFGMYFFQLSRRKPQRVKQLILGGVRAALGPDYDVATHFTPRYNPWDQRLCLVPDGDLFRTIREQRASVVTAGIDTFTERGLRLSDGRELEAEIVVTATGLVLQVLGGIEVVVDGRTVDFAKTLNYKGMMYSDVPNMAATLGYTNASWTLKCDLTCEYVCRLLNYMDRHGYRQCVPHNDDTTVTPLPSLSFSSGYVQRSIADLPKQGSKRPWRLYQNYALDIVSLRFGKVDDGVMRYS	–	activity against the lansoprazole thioether [2]: 4.2 U/g; enzyme activity relative to BoTEMO [2]: 1.6 times
BoTEMO-M1: BoTEMO mutant, Asp295Cys, Ser395Leu, Trp396Ala, SEQ ID No. 4 (protein, VARIANT) MSTEHVDVLIVGAGLSGIAAAYHLQHKCPGKRFALLEGRGALGGTWDLFRYPGIRSDSDMYTLGYSFKPWTDPKAIADGPQILKYVQDTATENGIDRHIRFNHRVRRASWSSADARWTVEAERQTAQGTTETVSMTCGFLFMCSGYYRYEKGYLPDFKGMADFKGRIVHPQAWPADLDYAGKRVVVIGSGATAVTLVPAMAKTAAHVTMLQRSPTYVVSRPAQDALANKLREHLPAGLAYHLIRWRNVLFGMYFFQLSRRKPQRVKQLILGGVRAALGPDYDVATHFTPRYNPWCQRLCLVPDGDLFRTIREQRASVVTAGIDTFTERGLRLSDGRELEAEIVVTATGLVLQVLGGSEVVVDGRTVDFAKTLNYKGMMYSDVPNMAATLGYTNFLATLKCDLTCEYVCRLLNYMDRHGYRQCVPHNDDTTVTPLPSLSFSSGYVQRSIADLPKQGSKRPWRLYQNYALDIVSLRFGKVDDGVMRYS	–	activity against the lansoprazole thioether [2]: 20 U/g; enzyme activity relative to BoTEMO [2]: 7.6 times
